What was measured:
FLT3(WT) = FLT3(WT) (Homo sapiens, UniProt P36888); assay: Inhibition of FLT3, kinase IC50; type: biochemical
Protocol: (§1) RBC HotSpot Kinase Assay Protocol:
(§2) Reagents used: Base Reaction buffer; 20 mM Hepes (pH 7.5), 10 mM MgCl2, 1 mM EGTA, 0.02% Brij35, 0.02 mg/ml BSA, 0.1 mM Na3VO4, 2 mM DTT, 1% DMSO. Required cofactors are added individually to each kinase reaction.
(§3) Compound 7 was dissolved in 100% DMSO to a specified concentration. The serial dilution was conducted by epMotion 5070 in DMSO. The substrate was freshly prepared in Reaction Buffer and any required cofactors to the substrate solution were added. The kinase was added to the solution and gently mixed. Compound 7 was added in 100% DMSO into the kinase reaction mixture by Acoustic technology (Echo550; nanoliter range), and incubated for 20 min at room temperature. ^33P-ATP (Specific activity 10 μCi/μl) was added into the reaction mixture to initiate the reaction, which was incubated for 2 hours, whereupon kinase activity was detected by the filter-binding method.

FLT3(K663Q) = target: T1, FLT3(K663Q) (Homo sapiens, UniProt P36888, K663Q); assay: Binding constant (Kd), competition binding with qPCR readout
T1 construct: made in house; host or cells: E. coli BL21-derived host (T7 phage) or HEK-293

[1] = tested on: BTK and Aurora kinase in Ramos cells; assay: Cell signaling in Ramos cells (Western blot); type: cell-based; settings: relative to ibrutinib
Protocol: (§4) Immunoblot assays: Cells were treated with Compound 7 at various concentrations and collected for cell lysates. The total and phosphorylated levels of the indicated proteins were determined by Western Blot.

FLT3(ITD-D835V) = target: T2, FLT3(ITD-D835V) (Homo sapiens, UniProt P36888, D835V, form not given); assay: Binding constant (Kd), competition binding with qPCR readout
T2 construct: kinase-tagged T7 phage strains were prepared in an E. coli host derived from the BL21 strain; fused on or other part: T7 phage fusion or DNA tag for qPCR detection
Protocol: (§5) Measurements of said kinase activity are referred to as binding constants or Kd values. The protocol for obtaining these values is hereby described. For most assays, kinase-tagged T7 phage strains were prepared in an E. coli host derived from the BL21 strain. E. coli were grown to log-phase and infected with T7 phage and incubated with shaking at 32° C. until lysis. The lysates were centrifuged and filtered to remove cell debris. The remaining kinases were produced in HEK-293 cells and subsequently tagged with DNA for qPCR detection. […] The liganded beads were blocked with excess biotin and washed with blocking buffer (SeaBlock (Pierce), 1% BSA, 0.05% Tween 20, 1 mM DTT) to remove unbound ligand and to reduce nonspecific binding. […] Test compounds were prepared as 111× stocks in 100% DMSO. Kds were determined using an 11-point 3-fold compound dilution series with three DMSO control points. […] The compounds were then diluted directly into the assays such that the final concentration of DMSO was 0.9%. All reactions performed in polypropylene 384-well plate. Each was a final volume of 0.02 ml. […] The kinase concentration in the eluates was measured by qPCR.

FLT3(ITD-F691L) = target: T3, FLT3(ITD-F691L) (Homo sapiens, UniProt P36888, F691L, form not given); assay: as above
T3 construct: kinase-tagged T7 phage strains were prepared in an E. coli host derived from the BL21 strain; fused on or other part: T7 phage fusion or DNA tag for qPCR detection
Protocol: as §5

FLT3(R834Q) = target: T4, FLT3(R834Q) (Homo sapiens, UniProt P36888, R834Q); assay: as above
T4 construct: made in house; host or cells: E. coli BL21-derived host (T7 phage) or HEK-293
Protocol: as §5

FLT3(D835V) = target: T5, FLT3(D835V) (Homo sapiens, UniProt P36888, D835V); assay: as above
T5 construct: made in house; host or cells: E. coli BL21-derived host (T7 phage) or HEK-293
Protocol: as §5

THP-1 (FLT3-WT, t(9:11)) = assay: Antiproliferative activity (Table 6); type: cell-based; settings: Homo sapiens, THP-1, 72 h
[2] = tested on: human cells (e.g., FLTs-ITD-mutated leukemia cells MV4-11); assay: Mouse xenograft model, tumor volume; type: in vivo, mice; settings: several doses over a 22-day period, vs control or Ibrutinib
Protocol: Animal Study: Balb/c mice were injected (SQ) with human cells (e.g., FLTs-ITD-mutated leukemia cells MV4-11), and treated orally (q.d.) with the indicated doses of Compound 7 for 14 days. The effect (e.g., anti-leukemia) was assessed by measuring tumor burden. Oral toxicity was evaluated, for example, by measuring body weight. Compound 7 concentrations in plasma were measured at the indicated time points after dosing at the first day.

[3] = tested on: BTK pathway in MV4-11 cells; assay: Western blot analysis in MV4-11 cells; type: cell-based, human; settings: 0.5, 5.0, and 50 nM, FIG. 2
Protocol: as §4

[4] = tested on: FLT3 pathway in MV4-11 cells; assay: Western blot analysis in MV4-11 cells; type: cell-based, human; settings: FIG. 1
Protocol: as §4

FLT3(N841I) = target: T6, FLT3(N841I) (Homo sapiens, UniProt P36888, N841I); assay: Binding constant (Kd), competition binding with qPCR readout
T6 construct: made in house; host or cells: E. coli BL21-derived host (T7 phage) or HEK-293

[5] = tested on: Aurora kinase in FLT3 WT cells (KG-1); assay: Cell signaling Western blot; type: cell-based; settings: KG-1 cells, FIGS. 25A-25B
Protocol: as §4

BTK C481S = BTK C481S (Homo sapiens, UniProt Q06187, C481S); assay: Inhibition of BTK, kinase IC50; type: biochemical; parameters: RBC (only as the name of the general kinase protocol)
Protocol: as §1, §2, §3

[6] = tested on: Ba/F3 cells transfected with FLT3 ITD-F691L; assay: Cytotoxicity in isogenic transfected Ba/F3 cells (Table 4); type: cell-based, Murin; settings: Mus musculus, BaF3, read-out: IC50 in Transfected Ba/F3 cells, FLT3 ITD-F691L
[7] = tested on: Ba/F3-ITD + D835H (FLT3-ITD + D835H); assay: Antiproliferative activity (Table 6); type: cell-based, Murin; settings: 72 h
[8] = tested on: Ba/F3-ITD + D835Y (FLT3-ITD + D835Y); assay: Antiproliferative activity (Table 6); type: cell-based, Murin; settings: 72 h
EGFR = EGFR (Homo sapiens, UniProt P00533); assay: Key off-targets (Table 8); type: biochemical
EOL-1 = assay: Cytotoxicity in high serum conditions (MTS); type: cell-based; settings: EOL-1, 72 hours, 10% vs 30%, 50%, 80% FBS
Protocol: Compound 7 was tested in a dose-dependent manner at different serum concentrations. […] In this experiment, MV4-11 (n=6) and EOL-1(n=3˜6) cells were treated with or without Compound 7 for 72 hours in medium containing normal (10%) or high serum (30%, 50%, 80%) FBS with an MTS assay serving as an end point.

EGFR, sequence (P00533 25-1210): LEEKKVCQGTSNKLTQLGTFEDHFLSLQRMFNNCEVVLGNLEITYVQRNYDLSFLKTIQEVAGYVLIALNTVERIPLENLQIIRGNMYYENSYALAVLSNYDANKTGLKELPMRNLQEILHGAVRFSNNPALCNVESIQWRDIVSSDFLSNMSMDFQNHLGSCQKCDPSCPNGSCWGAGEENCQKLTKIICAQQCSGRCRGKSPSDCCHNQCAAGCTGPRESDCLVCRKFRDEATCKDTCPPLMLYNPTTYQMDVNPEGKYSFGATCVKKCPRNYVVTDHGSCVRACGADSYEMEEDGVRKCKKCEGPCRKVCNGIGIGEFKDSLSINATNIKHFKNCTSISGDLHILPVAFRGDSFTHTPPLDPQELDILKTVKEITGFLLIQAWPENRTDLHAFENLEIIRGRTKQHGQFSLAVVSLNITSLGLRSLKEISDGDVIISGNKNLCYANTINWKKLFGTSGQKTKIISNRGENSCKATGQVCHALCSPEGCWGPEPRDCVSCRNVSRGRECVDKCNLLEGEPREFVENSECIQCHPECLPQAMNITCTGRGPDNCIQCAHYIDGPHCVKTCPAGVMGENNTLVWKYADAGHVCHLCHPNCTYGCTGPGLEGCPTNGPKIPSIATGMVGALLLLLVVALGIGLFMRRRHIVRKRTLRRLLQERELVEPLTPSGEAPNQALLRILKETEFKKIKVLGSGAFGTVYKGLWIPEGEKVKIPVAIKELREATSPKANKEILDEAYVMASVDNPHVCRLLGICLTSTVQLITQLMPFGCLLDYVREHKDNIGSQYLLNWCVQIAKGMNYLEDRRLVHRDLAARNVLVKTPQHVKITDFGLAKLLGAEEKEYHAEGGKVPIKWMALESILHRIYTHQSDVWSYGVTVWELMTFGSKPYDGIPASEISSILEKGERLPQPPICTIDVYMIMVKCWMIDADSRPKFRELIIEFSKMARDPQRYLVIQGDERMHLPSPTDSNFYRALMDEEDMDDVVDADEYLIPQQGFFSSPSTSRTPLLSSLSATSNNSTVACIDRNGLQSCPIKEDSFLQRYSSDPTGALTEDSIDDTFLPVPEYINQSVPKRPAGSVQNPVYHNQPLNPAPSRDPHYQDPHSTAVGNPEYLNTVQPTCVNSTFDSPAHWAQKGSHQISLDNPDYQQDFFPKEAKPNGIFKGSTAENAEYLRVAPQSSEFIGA
BTK C481S, sequence (Q06187 whole entry C481S): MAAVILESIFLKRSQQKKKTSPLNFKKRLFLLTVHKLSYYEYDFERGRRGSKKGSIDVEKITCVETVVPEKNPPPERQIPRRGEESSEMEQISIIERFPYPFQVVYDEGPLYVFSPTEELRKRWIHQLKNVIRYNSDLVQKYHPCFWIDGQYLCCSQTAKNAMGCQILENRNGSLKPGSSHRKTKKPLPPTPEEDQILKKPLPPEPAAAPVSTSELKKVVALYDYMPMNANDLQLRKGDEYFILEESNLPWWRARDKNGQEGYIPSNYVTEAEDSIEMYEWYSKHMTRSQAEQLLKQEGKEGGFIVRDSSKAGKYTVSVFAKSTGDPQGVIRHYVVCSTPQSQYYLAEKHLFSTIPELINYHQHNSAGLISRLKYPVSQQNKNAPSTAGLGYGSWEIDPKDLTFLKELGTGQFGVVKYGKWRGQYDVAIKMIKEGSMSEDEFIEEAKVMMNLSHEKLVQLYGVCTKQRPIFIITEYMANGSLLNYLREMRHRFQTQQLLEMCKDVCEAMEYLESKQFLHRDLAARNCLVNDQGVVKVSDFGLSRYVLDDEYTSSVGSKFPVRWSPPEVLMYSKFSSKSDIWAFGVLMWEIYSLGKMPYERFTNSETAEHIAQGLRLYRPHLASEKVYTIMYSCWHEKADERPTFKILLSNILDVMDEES

In the case of `Cc1cnc(-c2ccc(-c3ccc(NC(=O)Nc4c(F)cc(F)cc4F)cc3F)c3c2C(=O)NC3)[nH]1` [Compound 7, 1-{3-fluoro-4-[7-(5-methyl-1H-imidazol-2-yl)-1-oxo-2,3-dihydro-1H-isoindol-4-yl]-phenyl}-3-(2,4,6-trifluorophenyl)urea], the IC50 (FLT3(WT)) is reported as 8.75 nM, the Kd (FLT3(K663Q)) is reported as 0.55 nM and the “BTK and Aurora kinase activity” value [1] is reported as “inhibits BTK and Aurora kinase activity”. It also gave a Kd (FLT3(ITD-D835V)) of 1700 nM, a Kd (FLT3(ITD-F691L)) of 15 nM and a Kd (FLT3(R834Q)) of 6.4 nM. For the same compound, the Kd (FLT3(D835V)) was 7.9 nM, the IC50 (THP-1 (FLT3-WT, t(9:11))) was 3.88 nM and the Tumor volume [2] was “reduces tumor volume with increased dose”. The “Inhibition of BTK pathway (Western blot)” value [3] was “inhibits BTK pathway”, the “Inhibition of FLT3 pathway (Western blot)” value [4] was “inhibits FLT3 pathway” and the Kd (FLT3(N841I)) was 0.76 nM. For the same compound, the “Aurora kinase activity and signaling (Western blot)” value [5] was “inhibits Aurora kinase activity and signaling”, the IC50 (BTK C481S) was 2.52 nM and the IC50 [6] was 10 nM. For the same compound, the IC50 [7] was 6.74 nM, the IC50 [8] was 9.72 nM and the IC50 (EGFR) was greater than 1000 nM. For the same compound, the “Inhibition of EGFR (in words)” value (EGFR) was “no inhibition” and the “Activity at high serum concentration” value (EOL-1) was “retains high activity at high serum concentration”.
